Measurements published in patent US20090048304A1, “Crystal Form of Besipirdine Chlorhydrate, Process Preparation and Use Thereof” (UROGENE, priority 2006, published 2009).
Like-named read-outs stand apart in the source and are kept apart here.

What was measured:
[1] = storage conditions at room temperature, use and storing conditions of the powder
[2] = for Stability of the crystal form in maturation studies (summary in words): all tested conditions: 25, 50, 80 °C, 8 or 72 hours, n-butyl-acetate; for Form(s) identified after maturation: maturation time 8 hours, 100 mg suspension in 2 ml n-butyl-acetate
Method: 100 mg suspensions of the different polymorphic forms, separated or in mixtures, in 2 ml of n-butyl-acetate, were left for maturation during 8 or 72 hours at different temperatures.

[3] = test system: bladder contractions induced by bladder irritation; settings: in vivo, in rats; according to WO02/064126; cited from earlier work

## CCCN(c1ccncc1)n1ccc2ccccc21.Cl [Form I, N-propyl-N-(4-pyridinyl)-1H-indol-1-amine chlorhydrate]
[1]
  Change of the polymorphic form with time on storage: does not evolve with time
[1]; listed as Polymorphic form I of besipirdine.HCl
  Change of the polymorphic form with time on storage: thermodynamically the most stable of all characterized forms
[2]
  Stability of the crystal form in maturation studies (summary in words): stable
[2]; listed as form I
  Stability of the crystal form in maturation studies (summary in words): thermodynamically the most stable of the three crystal forms

## CCCN(c1ccncc1)n1ccc2ccccc21.Cl [I + II, N-propyl-N-(4-pyridinyl)-1H-indol-1-amine chlorhydrate]
[2]; 25 °C
  Form(s) identified after maturation: I + II
[2]; 50 °C
  Form(s) identified after maturation: I + II
[2]; 80 °C
  Form(s) identified after maturation: I + II
[2]; listed as mixture of forms I and II
  Stability of the crystal form in maturation studies (summary in words): changes towards form I

## CCCN(c1ccncc1)n1ccc2ccccc21.Cl [Form III, N-propyl-N-(4-pyridinyl)-1H-indol-1-amine chlorhydrate]
[2]
  Stability of the crystal form in maturation studies (summary in words): quickly turns into form I

## CCCN(c1ccncc1)n1ccc2ccccc21.Cl [Form II, N-propyl-N-(4-pyridinyl)-1H-indol-1-amine chlorhydrate]
[2]
  Stability of the crystal form in maturation studies (summary in words): appears to be a stable form

## CCCN(c1ccncc1F)n1cc(C)c2ccccc21 [HP184, N-(3-fluoro-4-pyridinyl)-N-propyl-3-methyl-1H-indol-1-amine]
[3]
  Frequency of bladder contractions induced by bladder irritation: slightly decrease the frequency of bladder contractions
